# According to EP1039902B1, “INHIBITORS OF GAP JUNCTION COMMUNICATION” (THE SCRIPPS RESEARCH INSTITUTE, priority 1997, dated 1999):
# Entries after “also recorded” stand apart in the source; their conditions may differ.
# Tests used:
# [1] = tested on: rat glial cell gap junction; test: Gap junction dye coupling assay (Lucifer yellow dye transfer; microinjection or scrape loading); format: cell-based; details: for potency of gap junction inhibition relative to oleamide: comparison in words
# Protocol: (§1) Rat glial cells (Suter et al., 1987) obtained from Dr. Trosko's laboratory were cultured in standard plastic tissue cultureware in Richter's Improved Minimal Essential Medium (Irvine Scientific, Santa Ana, CA), supplemented with 10% fetal calf serum and 50 µg/ml gentamicin sulfate, and incubated in a humidified atmosphere of 95% air/5% CO2 at 37°C. The cells were passaged by trypsinization and used at passages 4-8. BHK (baby hamster kidney) cells that were stably transfected with a β1 connexin cDNA (Kumar et al., 1995) were cultured in DMEM medium supplemented with 5% fetal calf serum and 50 µg/ml gentamicin sulfate, and incubated in a humidified atmosphere of 95% air/5% CO2 at 37° C. In order to induce β1 connexin expression in the BHK cells, 100 µM zinc acetate was added to culture medium for 8-18 hours when the cell culture was about 90% confluent.
# (§2) Gap junctional communication in glial cell and BHK/β1 cell cultures was assayed by microinjection of 5% Lucifer yellow CH dye in 0.1 M LiCl solution, and quantitated by determining the number of directly adjacent, neighboring cells that received dye (dye-coupling). Micropipettes were loaded with the dye solution by backfilling. Cells were visualized using a Nikon Diaphot inverted phase contrast/ epifluorescent microscope, and impaled with dye-filled micropipettes using an Eppendorf microinjector (model 5246). Five minutes after dye-injection, the transfer of dye to directly adjacent cells was determined using epifluorescent illumination. For each treatment condition, ten cells were microinjected in each of three dishes, the total number of dye-coupled neighboring cells was calculated and compared to determine the % dye-coupling. For scrape loading measurements, Lucifer yellow CH (0.05% dye in PBS) was loaded intracellularly by cutting or scraping cells in the monolayer with a sharp knife. The dye solution was left in the dish for 90 seconds, then the solution was discarded, and the dish subsequently washed with PBS. The cells were examined for dye transfer with an inverted epifluorescence microscope, and the degree of communication was assessed by determining the extent of Lucifer yellow transfer into contiguous cells.
# rat glial cells = test: Calcium wave propagation (Fluo-3, mechanical stimulation); format: cell-based
# Protocol: Rat glial cells were loaded with 5 µM Fluo-3/AM (Calbiochem) in Hank's balanced salt solution containing 25 mM HEPES buffer (HBSS/HEPES) for 1 hour, at which point the loading buffer was exchanged for new HBSS/HEPES buffer. The cell cultures were then left at room temperature for at least 30 minutes. Mechanical stimulation of a single cell was performed as follows: a glass micropipette (tip diameter of approximately 0.5 µm) was micro-manipulated downward on to a single cell causing a transient deformation of the cell membrane. The calcium image was then examined with an inverted fluorescence microscope, and photographed with a digital fluorescence microscope (excitation = 506 nm, emmision = 526 nm). The degree of calcium wave propagation was quantitated by counting at different time points the number of transmitting cells in one linear direction away from the stimulated cell. Junctional dye transfer rates were simultaneously examined by microinjection of Lucifer yellow CH in the same dishes; the methods for dye transfer assay was described in assay procedures, gap junction dye coupling assays. For calcium wave and dye transfer studies, the drug was preincubated with the glial cells for 10 minutes, and the drug was left in the experimental solution throughout the examination. All measurements were performed at room temperature.
# BHK/β1 cells = test: Gap junction dye transfer between β1 connexin-transfected BHK cells; format: cell-based, baby hamster; details: concentration not given
# Protocol: as §1, §2
# [2] = result in words, concentration not stated at the place
SMILES,"inhibition of gap junction-mediated dye transfer [1, 2]",further results
"CCCC/C=C\CCCCCCCC(N)=O [14:1^9, Myristoleamide]",loss of activity,
"CCCCCCCCCCCCCCCCCC(N)=O [18:0, stearamide]",no observable inhibition,"inhibition of gap junction-mediated dye transfer ([1]; result in words, concentration not given, listed as octadecanamide): ineffective"
"CC1(C)[C@@H](O)CC[C@]2(C)[C@H]3C(=O)C=C4[C@@H]5C[C@@](C)(C(=O)O)CC[C@]5(C)CC[C@@]4(C)[C@]3(C)CC[C@@H]12 [18β-GA, 18β-glycyrrhetinic acid, reference compound]",,"block of dye transfer ([1]; 40 µM): completely blocking; potency of gap junction inhibition relative to oleamide [1]: blocked dye transfer at doses comparable to oleamide; calcium wave propagation (rat glial cells; 40 µM, 10 minutes prior to mechanical stimulation): completely blocking; also recorded: did not propagate to any other cells; effect on dye transfer (BHK/β1 cells): inhibitory effects"
"CCCCCCCC/C=C\CCCCCCCC(=O)OC[C@H](CO)OC(C)=O [(2S)-1-oleoyl-2-acetylglycerol, reference compound]",not inhibitors,
"CCCCCCCC/C=C\CCCCCCCC(=O)CBr [BrCH2, 1-Bromo-10Z-nonadecen-2-one]",substantially less effective,
COCCCCCCCC/C=C\CCCCCCCC(N)=O [CH2OCH3],did not effect the gap junction inhibition,
CCCCCCCC/C=C\CCCCCCC(S)C(N)=O (centres unmarked) [CHSH],ineffective,
CCCCCCCC/C=C\CCCCCCCC(=O)CCl [ClCH2],substantially less effective,
CCCCCCCC/C=C\CCCCCCCC(=O)N(C)OC [MeONMe],most potent of the agents examined,
CCCCCCCC/C=C\CCCCCCCC(=O)NCC(N)=O [N-oleoyl glycinamide],ineffective,
CCCCCCCC/C=C\CCCCCCCC(=O)NCC(=O)OCC [N-oleoyl glycine ethyl ester],"effective, albeit slightly less potent, inhibitor",
CCCCCCCC/C=C\CCCCCCCC(=O)NCC(=O)O [N-oleoyl glycine],ineffective,
CCCCCCCC/C=C\CCCCCCCC(=O)N(C)CC(=O)OCC [N-oleoyl sarcosine ethyl ester],effective inhibitors,
CCCCCCCC/C=C\CCCCCCCC(=O)N(C)CC(=O)O [N-oleoyl sarcosine],effective inhibitors,
CCCCC/C=C\C/C=C\C/C=C\C/C=C\CCCC(N)=O [arachidonamide],effective inhibitor,potency of gap junction inhibition relative to oleamide [1]: not quite as potent as oleamide
NC(=O)CCCCCCC/C=C\CCCCCCCC(=O)O [carboxylic acid],,inhibition of gap junction-mediated dye transfer ([1]; 50 µM): no gap junction inhibition
CCCCCCCCC/C=C\CCCCCCC(N)=O [cis-8-octadecenamide],,inhibition of gap junction-mediated dye transfer ([1]; 50 µM): significant inhibitors; potency of gap junction inhibition relative to oleamide [1]: less potent than oleamide at lower doses
CCCCCC/C=C\CCCCCCCCCC(N)=O [cis-11-octadecenamide],,inhibition of gap junction-mediated dye transfer ([1]; 50 µM): only slightly affected junctional coupling; inhibition of gap junction-mediated dye transfer ([1]; 100 µM): completely blocked dye transfer
"CCCCCCCCC#CCCCCCCCC(N)=O [compound 2, 9-octadecynamide]",potent inhibitor,potency of gap junction inhibition relative to oleamide [1]: only slightly less active than oleamide

SMILES,"inhibition of gap junction-mediated dye transfer [1, 2]",further results
CCCCCCCC/C=C\CCCCCCCC(=O)OCC [ethyl oleate],progressively reduced effectiveness,
"CCCCCCCO [heptanol, reference compound]",,"block of dye transfer ([1]; 3 mM): completely blocking; minimal effective concentration ([1]; Rattus norvegicus, Glial cell, read-out: concentrations required to inhibit junctional communication): 3000 µM; calcium wave propagation (rat glial cells; 3 mM): completely blocking; effect on dye transfer (BHK/β1 cells): inhibitory effects"
"CCCCC/C=C\C/C=C\CCCCCCCC(N)=O [linoleamide, Linoleamide]",,potency of gap junction inhibition relative to oleamide [1]: lower than oleamide
CCCCCCCC/C=C\CCCCCCCC(=O)OC [methyl oleate],progressively reduced effectiveness,
"CCCCCCCC/C=C\CCCCCCCCOC(C)=O [oleyl acetate, Oleyl acetate]",progressively reduced effectiveness,
"CCCCCCCC/C=C\CCCCCCCCO [oleyl alcohol, Oleyl alcohol]",progressively reduced effectiveness,
"CCCCCCCC/C=C\CCCCCCCC(OC)OC [oleyl aldehyde dimethyl acetal, Oleyl aldehyde dimethyl acetal]",inactive,
CCCCCCCC/C=C\CCCCCCCC(=O)NCCCO [oleyl propanolamide],comparable properties,
"CCCCCC/C=C\CCCCCCCC(N)=O [palmitoleamide, Palmitoleamide]",potent activity,
"Cc1ccc(C(=O)Nc2ccc(S(=O)(=O)O)c3cc(S(=O)(=O)O)cc(S(=O)(=O)O)c23)cc1NC(=O)c1cccc(NC(=O)Nc2cccc(C(=O)Nc3cc(C(=O)Nc4ccc(S(=O)(=O)O)c5cc(S(=O)(=O)O)cc(S(=O)(=O)O)c45)ccc3C)c2)c1 [suramin, reference compound]",,gap junction communication ([1]; 200 µM): without affecting gap junction communication; glial calcium wave transmission (rat glial cells; 200 µM): blocked glial calcium wave transmission
NC(=O)CCCCCCC/C=C\CCCCCCCC(N)=O [symmetrical 18:1^9 dicarboxamide],,inhibition of gap junction-mediated dye transfer ([1]; 50 µM): no gap junction inhibition
"NC(=O)CCCCCCC/C=C\CCCCCCCCO [terminal alcohol, 18-hydroxyoleamide]",,inhibition of gap junction-mediated dye transfer ([1]; 50 µM): no gap junction inhibition
"CCCCCCCC/C=C\CCCCCCC(C)(C)C(N)=O [α,α-dimethyl oleamide]",potent inhibitors,
CCCCCCCC/C=C\CCCCCCC(SC(C)=O)C(N)=O (stereo not drawn) [α-acetylthiooleamide],effective inhibitors,
CCCCCCCC/C=C\CCCCCCC(Cl)C(N)=O (stereo not drawn) [α-chlorooleamide],effective inhibitors,
"CCCCCCCC/C=C\CCCCCCC(O)C(N)=O (stereo not drawn) [α-hydroxy oleamide, 2-hydroxy-9Z-octadecenamide]",effective inhibitors,
CC/C=C\C/C=C\C/C=C\CCCCCCCC(N)=O [α-linolenamide],,inhibition of gap junction-mediated dye transfer ([1]; 50 µM): ineffective
CCCCCCCC/C=C\CCCCCCC(C)C(N)=O (stereo not drawn) [α-methyl oleamide],potent inhibitors,
CCCCC/C=C\C/C=C\C/C=C\CCCCC(N)=O [γ-linolenamide],effective but less potent inhibitor,
